Like-named read-outs stand apart in the source and are kept apart here.

Assay [1] relates to TP73 recruitment to the PUMA gene promoter. Put plainly: qChIP for BBC3 (PUMA) promoter occupancy by TP73. The note with it: MDA-MB-231 cells; 5 μM for 24 hours. It counts as cell-based. On the procedure: FIGS. 17A-C. […] (A) Cells were treated with 5 μM TAM for 24 hours. After 24 hours, BBC3 promoter occupancy by TP73 was determined using qChIP in MDA-MB-231 cells. (B) SK-BR-3 cells were transfected with si-NS or si-ESR2 #2 for 48 hours and treated with or without 5 μM TAM for 24 hours. After 72 hours, expression of TP53 target genes (CDKN1A and BBC3) was determined using qRT-PCR. (C) SK-BR-3 cells were transfected with si-NS or si-TP73 for 48 hours and treated with or without 5 μM TAM for 24 hours. After 72 hours, expression of TP53 target genes (CDKN1A and BBC3) was determined using qRT-PCR. Error bars are represented as mean SD of three independent experiments. All ‘p’ values were determined by two tailed student t-test. qRT-PCR=Quantitative real time polymerase chain reaction. si-NS=non-specific siRNA; si-ESR2 #2=ESR2 specific siRNA; si-TP73=TP73 specific siRNA; VEH=Vehicle; TAM=4-Hydroxytamoxifen.
Chromatin immunoprecipitation (ChIP) assay. […] Immunoprecipitated chromatin samples were analyzed through real-time q-PCR as stated above. A region downstream of CDKN1A/p21 promoter sequence was used as endogenous control for the relative quantitation of immunoprecipitated chromatin fragments (Details of the primers are provided in Table 1). The promoter occupancy by transcription factor (s) of interest was analyzed as qRT-PCR.

Assay [2] deals with MDA-MB-231 cells expressing mutant p53. Put plainly: Doxorubicin cell-killing IC50 in TNBC cells expressing mutant p53, with or without tamoxifen. It is filed as cell-based. The following applies: for IC50: Homo sapiens.

Turning to 4-hydroxy tamoxifen, the “recruitment of TP73 to the PUMA gene promoter (qChIP)” value in assay [1] is given as “enhanced”.
As for `COc1cccc2c1C(=O)c1c(O)c3c(c(O)c1C2=O)C[C@@](O)(C(=O)CO)C[C@@H]3O[C@H]1C[C@H](N)[C@H](O)[C@H](C)O1` [doxorubicin], the IC50 was 150 nM in assay [2] (MDA-MB-231, read-out: IC50 of doxorubicin with addition of tamoxifen) and 1050 nM in assay [2] (read-out: IC50 (drug concentration required to kill 50% cells) of doxorubicin, MDA-MB-231 expressing mutant p53, doxorubicin alone). Further, in assay [2] (MDA-MB-231 expressing mutant p53), the “Decrease of doxorubicin IC50 on addition of tamoxifen” value is on record as “about 7 fold”.

Values taken from US12673032B2, “Exploiting estrogen receptor beta and TP53 interaction as a new therapeutic strategy for cancer” (Health Research, Inc., priority 2018, dated 2026).
